We go through three compounds from PMC9186362, “Design and biological evaluation of substituted 5,7-dihydro-6H-indolo[2,3-c]quinolin-6-one as novel selective Haspin inhibitors” (Journal of Enzyme Inhibition and Medicinal Chemistry, 2022).

In one series the test system is U-2 OS cells. The series can be described thus: Cell cycle analysis by flow cytometry. The format is cell-based, human. The conditions noted are these: 1 µM, 24 h. Here is the method:
After treatment with the compounds, cells were trypsinized and washed once in PBS. Cells were fixed for 1 h in ice-cold 70% ethanol, then washed once in PBS, centrifuged at 200 g and resuspended in a PBS buffer containing 100 µg/ml RNase A (Thermo Scientific) and 40 µg/ml propidium iodide (Life Technologies). DNA content was determined using a flow cytometer Attune^TM NxT (Thermofisher) and ten thousand events were collected in each run. The data were analysed using FCS Express 7 Pro software (De Novo).
(In general: A flow cytometer gives signals particle by particle.)

On the set-up of series [1]: method as in PMID 22305342. The settings on record: cited from earlier work.

Molecules are shown by their SMILES.

For the compound `CCCNc1ccc2ncc(-c3ccc4[nH]ncc4c3)n2n1` [CHR-6494, reference compound], in the series on U-2 OS cells (DMSO control 6%), the “% of cycling cells G2/M” value was determined as 17%. Moreover, the “% of cycling cells S” value with U-2 OS cells (DMSO control 44%) is given as 38%. Further, the “% of cycling cells G1” value with U-2 OS cells (DMSO control 50%) is reported as 45%. On to `O=c1oc2ccc(O)cc2c2c1[nH]c1ccccc12` [Compound 1a], for which, in series [1], the “Stability in basic media” value is recorded as “instability in basic media”. As for `O=c1oc2ccc(O)cc2c2c1[nH]c1cc(O)ccc12` [Compound 1b], the “Stability in basic media” value in series [1] is “instability in basic media”.
